Data taken from PubChem BioAssay (NCI).
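Cells were grown in 96-well plates and exposed to each compound for 48 hours at five concentrations; endpoints were interpolated linearly between bracketing concentrations, or set to the highest concentration if not reached. Abbreviation: GI50, concentration required for 50% inhibition of growth. At the TGI there is no net growth.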

How the values were obtained:
Assay in all cases: growth of human tumour cells (NCI), 48 h
[1] = tested on: A549 NSCLC
[2] = tested on: HCC-2998 colon
[3] = tested on: HCT-116 colon
[4] = tested on: OVCAR-4 ovarian
[5] = tested on: RPMI-8226 leukemia
[6] = tested on: RXF 393 renal
[7] = tested on: SK-MEL-2 melanoma
[8] = tested on: SK-MEL-28 melanoma
[9] = tested on: SW-620 colon
[10] = tested on: U251 CNS

SMILES | GI50 [1] | TGI [1] | GI50 [2] | TGI [2] | GI50 [3] | TGI [3] | GI50 [4] | TGI [4] | GI50 [5] | TGI [5] | GI50 [6] | TGI [6] | GI50 [7] | TGI [7] | GI50 [8] | TGI [8] | GI50 [9] | TGI [9] | GI50 [10] | TGI [10]
COC(=O)[C@]12CC[C@@H](C)[C@H](C)[C@@H]1C1=CC[C@@H]3[C@@]4(C)C[C@@H](OC(=O)c5ccco5)[C@H](O)[C@@](C)(CO)[C@@H]4[C@H](O)C[C@@]3(C)[C@]1(C)CC2 | 2.44 µM | 7.05 µM | 1.95 µM | 3.73 µM | 1.88 µM | 3.41 µM | 3.41 µM | 13.5 µM | 2.55 µM | 7.56 µM | 1.66 µM | 3.34 µM | 1.97 µM | 4.31 µM | 2.17 µM | 4.71 µM | 1.79 µM | 3.54 µM | 1.97 µM | 4.21 µM
C=CCC(C(=O)OC)C1(C(=O)OC)c2[nH]c3ccccc3c2CCN1Cc1ccccc1 (stereo not given) |  | > 100 µM |  | > 100 µM |  | > 100 µM |  | > 100 µM |  | > 100 µM |  | > 100 µM |  | > 100 µM |  | > 100 µM |  | > 100 µM |  | > 100 µM
C=C1C(=O)OC2CCCCC3OC3C12 (stereo not given) |  | 40.2 µM |  | 23.9 µM |  | 13 µM |  | 28.7 µM |  | 27.4 µM |  | 30.1 µM |  | 27.5 µM |  | 23.9 µM |  | 13.3 µM |  | 23 µM
COC1=C(OC)C(=O)C(/C=C(\C)C(=O)O)=C(C)C1=O | > 100 µM | > 100 µM | > 100 µM | > 100 µM | > 100 µM | > 100 µM | > 100 µM | > 100 µM | > 100 µM | > 100 µM | > 100 µM | > 100 µM | > 100 µM | > 100 µM | > 100 µM | > 100 µM | > 100 µM | > 100 µM | > 100 µM | > 100 µM
C[N+](C)(C)CCOP(=O)(O)OP(=O)([O-])OCC1CCC(n2ccc(N)nc2=O)O1 (stereo not given) |  | > 100 µM |  | > 100 µM |  | > 100 µM |  | > 100 µM |  | > 100 µM |  | > 100 µM |  | > 100 µM |  | > 100 µM |  | > 100 µM |  | > 100 µM
CC(=O)NNc1nc(C)c(C(=O)NNC(=O)C(=O)Nc2ccc(C)c(C)c2)s1 |  | > 100 µM |  | > 100 µM |  | > 100 µM |  | > 100 µM |  | > 100 µM |  | > 100 µM |  | > 100 µM |  | > 100 µM |  | > 100 µM |  | > 100 µM
O=C1Cc2cc(CCn3ccnc3)c(Cl)cc2N1 | 7.63 µM | > 100 µM | 32.2 µM | > 100 µM | 13.1 µM | > 100 µM | 45 µM | > 100 µM | 46.2 µM | > 100 µM | 6.28 µM | > 100 µM | 5.78 µM | 73.6 µM | 29.7 µM | > 100 µM | 5.02 µM | > 100 µM | 8.24 µM | > 100 µM
CC1=C(C(=O)Nc2cccc(C(F)(F)F)c2)C(c2ccc(O)cc2)C(C(=O)Nc2cccc(C(F)(F)F)c2)=C(C)N1 |  | > 100 µM |  | 36.3 µM |  | 28.1 µM |  | 86.6 µM |  | 41.2 µM |  | 36.9 µM |  | 34.6 µM |  | 47.7 µM |  | 44 µM |  | 43.6 µM
Nc1ccc2c(c1)C(=O)c1ccc(F)cc1-2 |  | > 100 µM |  | > 100 µM |  | > 100 µM |  | > 100 µM |  | > 100 µM |  | > 100 µM |  | > 100 µM |  | > 100 µM |  | > 100 µM |  | > 100 µM
O=C(NCCCN1CCN(CCCNC(=O)c2cnc3ccccc3n2)CC1)c1cnc2ccccc2n1 |  | > 100 µM |  | > 100 µM |  | > 100 µM |  | > 100 µM |  | > 100 µM |  | > 100 µM |  | > 100 µM |  | > 100 µM |  | > 100 µM |  | > 100 µM
CCCOc1ccc(/C(Cl)=C(\C=O)c2ccc(OC)c(OC)c2)cc1OCCC |  | > 100 µM |  | 15.4 µM |  | 10.8 µM |  | > 100 µM |  | > 100 µM |  | 25.3 µM |  | 32 µM |  | 25.3 µM |  | > 100 µM |  | 33.9 µM
COc1ccc2c(c1)C(=O)c1c-2n(CCCN=[N+]=[N-])c(=O)c2ccccc12 | 52.2 µM | > 100 µM | 61.9 µM | > 100 µM | 26.7 µM | > 100 µM | 58.6 µM | > 100 µM | 51.3 µM | > 100 µM | 89.8 µM | > 100 µM | 46 µM | > 100 µM | > 100 µM | > 100 µM | 25.5 µM | > 100 µM | 27.5 µM | > 100 µM
C=CCN1C(=O)/C(=c2\sc3n(c2=O)C2C(NN=3)N(CC)C(=O)N2CC)c2ccccc21 (stereo not given) | 1.21 µM | > 100 µM | 1.28 µM | > 100 µM | 0.403 µM | > 100 µM | 1.03 µM | > 100 µM | 0.657 µM | > 100 µM | 0.328 µM | 1.94 µM | 2.17 µM | > 38.7 µM | 5.36 µM | > 100 µM | 0.423 µM | > 100 µM | 0.726 µM | > 33.5 µM
COc1cc2cc3c4c(cc(OC)c(OC)c4c2cc1OC)CCN3C(=O)CCCC(=O)O |  | > 100 µM |  | > 100 µM |  | > 100 µM |  | > 100 µM |  | > 100 µM |  | > 100 µM |  | > 100 µM |  | > 100 µM |  | > 100 µM |  | > 100 µM
CC1C2Cc3ccc(O)cc3C1(C)CCN2C (stereo not given) |  | > 100 µM |  | > 100 µM |  | > 100 µM |  | > 100 µM |  | > 100 µM |  | > 100 µM |  | > 100 µM |  | > 100 µM |  | > 100 µM |  | > 100 µM
Fc1ccc(-c2nc(-c3nc4ccc(Cl)cc4[nH]3)cc3c2[nH]c2ccccc23)cc1 | 2.89 µM | 12.3 µM | 5.56 µM | 20.2 µM | 3.29 µM | 12.5 µM | 4.81 µM | 17.2 µM | 1.84 µM | 6.58 µM | 1.62 µM | 4.66 µM | 2.76 µM | 7.54 µM | 4.25 µM | 14.9 µM | 4 µM | 19.2 µM | 3.31 µM | 18 µM
CCOc1ccc(Cc2nccc3cc(OCC)c(OCC)cc23)cc1OCC | 5.7 µM | 27.8 µM | 5.53 µM | 21.3 µM | 1.52 µM | 13.4 µM | 9.74 µM | 26 µM | 2.01 µM | 22.4 µM | 10.4 µM | 23.1 µM | 11.7 µM | 26.1 µM | 14.8 µM | 28.9 µM | 3.68 µM | 24.1 µM | 7.73 µM | 21.9 µM
O=C1NC(=NCC(CO)c2ccccc2)S/C1=C\c1ccc2ncccc2c1 (stereo not given) | 16.2 µM | > 25 µM | 24.6 µM | > 25 µM | 8.51 µM | > 25 µM | > 22.1 µM | > 25 µM | 14.6 µM | > 25 µM | > 20.3 µM | > 25 µM | > 25 µM | > 25 µM | > 25 µM | > 25 µM | 7.74 µM | > 25 µM | 9.91 µM | > 25 µM
CCN1CCC[C@H]1c1cc(O)c2c(c1OC)C[C@H]1C[C@H]3[C@H](N)C(=O)C(C(N)=O)=C(O)[C@@]3(O)C(=O)C1=C2O | 0.207 µM | 8.72 µM | 0.118 µM | 3.01 µM | 0.0456 µM | 1.96 µM | 0.0675 µM | 2.73 µM | 0.041 µM | 0.454 µM | 0.0312 µM | 0.247 µM | 0.0336 µM | 0.158 µM | 0.0668 µM | 1.26 µM | 0.0536 µM | 3.24 µM | 0.0442 µM | 1.88 µM
CCc1cccc(C(C)CC)c1N=C(NC(=O)c1ccccc1C(=O)NC(=Nc1c(CC)cccc1C(C)CC)SC)SC (stereo not given) |  | > 100 µM |  | > 100 µM |  | > 100 µM |  | > 100 µM |  | 89.8 µM |  | > 100 µM |  | > 100 µM |  | > 100 µM |  | > 100 µM |  | 79.5 µM
